Laboratory results as given in patent US20240270695A1, “COMPOUNDS, COMPOSITIONS AND METHODS OF TREATING DISORDERS” (Chengdu Anticancer Bioscience LTD, priority 2021, published 2024).

Legend:
[1] = tested on: RPE-Neo or RPE-MYC or RPE-MYC expressing an EGFP-Histone 2B fusion protein; assay: MTT assays of cellular proliferation; type: cell-based; details: Homo sapiens, min. effective conc., read-out: Proliferative arrest (<50%)
[2] = tested on: RPE-Neo or RPE-MYC or RPE-MYC expressing an EGFP-Histone 2B fusion protein; assay: Phenotypic screening assay (arrest in mitosis, change in DNA content, cell death; GE IN-Cell Analyzer 2000); type: cell-based; details: Homo sapiens, compounds 20 nM to 20 μM, 24, 48 or 72 hours
[3] = read-out: Min. Effective conc. for Polyploidy (≥10%)
[4] = min. effective conc., read-out: Cell Death (>30%)
[5] = min. effective conc., read-out: Mitotic Arrest (≥10%)

Row | SMILES | minimal effective concentration [1] [µM] | minimal effective concentration [2, 3] [µM] | minimal effective concentration [2, 4] [µM] | minimal effective concentration [2, 5] [µM]
1 | COC(=O)C1=C(O)c2ccccc2N(Cc2cccc(F)c2)C(=O)C1 [Example 8, Methyl 1-(3-fluorobenzyl)-5-hydroxy-2-oxo-2,3-dihydro-1H-benzo[b]azepine-4-carboxylate] | 30 to 1000 |  |  | 
2 | COC(=O)C1=C(O)c2ccccc2N(Cc2cc(OC)cc(OC)c2)C(=O)C1 [Example 11, Methyl 1-(3,5-dimethoxybenzyl)-5-hydroxy-2-oxo-2,3-dihydro-1H-benzo[b]azepine-4-carboxylate] | 30 to 1000 |  |  | 
3 | COC(=O)C1=C(O)c2ccccc2N(Cc2ccc(C#N)cc2)C(=O)C1 [Example 26, Methyl 1-(4-cyanobenzyl)-5-hydroxy-2-oxo-2,3-dihydro-1H-benzo[b]azepine-4-carboxylate] | 30 to 1000 |  |  | 
4 | COC(=O)C1=C(O)c2ccccc2N(Cc2ccc(OC(F)(F)F)cc2)C(=O)C1 [Example 32, Methyl 5-hydroxy-2-oxo-1-(4-(trifluoromethoxy)benzyl)-2,3-dihydro-1H-benzo[b]azepine-4-carboxylate] | 30 to 1000 |  |  | 
5 | COC(=O)C1=C(O)c2ccccc2N(Cc2cccc3ccccc23)C(=O)C1 [Example 38, Methyl 5-hydroxy-1-(naphthalen-1-ylmethyl)-2-oxo-2,3-dihydro-1H-benzo[b]azepine-4-carboxylate] | 30 to 1000 | 30 to 1000 | 30 to 1000 | 30 to 1000
6 | COC(=O)Cc1ccc(CN2C(=O)CC(C(=O)OC)=C(O)c3ccccc32)cc1 [Example 42, Methyl 5-hydroxy-1-(4-(2-methoxy-2-oxoethyl)benzyl)-2-oxo-2,3-dihydro-1H-benzo[b]azepine-4-carboxylate] | 30 to 1000 |  |  | 
7 | Cc1ccc(CN2C(=O)CC(C(=O)NC3CCCCC3)=C(O)c3ccccc32)cc1F [Example 66, N-cyclohexyl-1-(3-fluoro-4-methylbenzyl)-5-hydroxy-2-oxo-2,3-dihydro-1H-benzo[b]azepine-4-carboxamide] |  | 10 to 30 | 10 to 30 | 10 to 30
8 | CNC(=S)C1=C(O)c2ccccc2N(Cc2ccc(C)c(F)c2)C(=O)C1 [Example 67, 1-(3-fluoro-4-methylbenzyl)-5-hydroxy-N-methyl-2-oxo-2,3-dihydro-1H-benzo[b]azepine-4-carbothioamide] |  | 10 to 30 | 10 to 30 | 10 to 30
9 | Cc1ccc(CN2C(=O)CC(C(=O)C(F)(F)F)=C(O)c3ccccc32)cc1F [Example 68, 1-(3-fluoro-4-methylbenzyl)-5-hydroxy-4-(2,2,2-trifluoroacetyl)-1,3-dihydro-2H-benzo[b]azepin-2-one] |  | 10 to 30 | 10 to 30 | 10 to 30
10 | CNC(=O)C1=C(O)c2ccccc2N(CC2CC2)C(=O)C1 [Example 70, 1-(cyclopropylmethyl)-5-hydroxy-N-methyl-2-oxo-2,3-dihydro-1H-benzo[b]azepine-4-carboxamide] | 30 to 1000 | 30 to 1000 | 30 to 1000 | 30 to 1000
11 | CNC(=O)C1=C(O)c2ccccc2N(Cc2ccsc2)C(=O)C1 [Example 71, 5-hydroxy-N-methyl-2-oxo-1-(thiophen-3-ylmethyl)-2,3-dihydro-1H-benzo[b]azepine-4-carboxamide] | 30 to 1000 | 30 to 1000 | 30 to 1000 | 30 to 1000
12 | CNC(=O)C1=C(O)c2ccccc2N(Cc2ccccc2)C(=O)C1 [Example 72, 1-benzyl-5-hydroxy-N-methyl-2-oxo-2,3-dihydro-1H-benzo[b]azepine-4-carboxamide] | 30 to 1000 | 30 to 1000 |  | 30 to 1000
13 | CNC(=O)C1=C(O)c2ccccc2N(Cc2ccncc2)C(=O)C1 [Example 74, 5-hydroxy-N-methyl-2-oxo-1-(pyridin-4-ylmethyl)-2,3-dihydro-1H-benzo[b]azepine-4-carboxamide] | 30 to 1000 | 30 to 1000 | 30 to 1000 | 30 to 1000
14 | CNC(=O)C1=C(O)c2ccccc2N(Cc2cccnc2)C(=O)C1 [Example 75, 5-hydroxy-N-methyl-2-oxo-1-(pyridin-3-ylmethyl)-2,3-dihydro-1H-benzo[b]azepine-4-carboxamide] | 30 to 1000 | 30 to 1000 | 30 to 1000 | 30 to 1000
15 | CNC(=O)C1=C(O)c2ccccc2N(Cc2ccc(F)cc2)C(=O)C1 [Example 76, 1-(4-fluorobenzyl)-5-hydroxy-N-methyl-2-oxo-2,3-dihydro-1H-benzo[b]azepine-4-carboxamide] | 1 to 10 | 1 to 10 | 1 to 10 | 1 to 10
16 | CNC(=O)C1=C(O)c2ccccc2N(Cc2cccc(F)c2)C(=O)C1 [Example 77, 1-(3-fluorobenzyl)-5-hydroxy-N-methyl-2-oxo-2,3-dihydro-1H-benzo[b]azepine-4-carboxamide] | 30 to 1000 | 30 to 1000 | 30 to 1000 | 30 to 1000
17 | CNC(=O)C1=C(O)c2ccccc2N(Cc2ccccc2F)C(=O)C1 [Example 78, 1-(2-fluorobenzyl)-5-hydroxy-N-methyl-2-oxo-2,3-dihydro-1H-benzo[b]azepine-4-carboxamide] | 10 to 30 | 10 to 30 | 10 to 30 | 10 to 30
18 | CNC(=O)C1=C(O)c2ccccc2N(Cc2ccc(C)cc2)C(=O)C1 [Example 79, 5-hydroxy-N-methyl-1-(4-methylbenzyl)-2-oxo-2,3-dihydro-1H-benzo[b]azepine-4-carboxamide] | 1 to 10 | 1 to 10 | 1 to 10 | 1 to 10
19 | CNC(=O)C1=C(O)c2ccccc2N(Cc2cccc(C)c2)C(=O)C1 [Example 80, 5-hydroxy-N-methyl-1-(3-methylbenzyl)-2-oxo-2,3-dihydro-1H-benzo[b]azepine-4-carboxamide] | 1 to 10 | 1 to 10 | 1 to 10 | 1 to 10
20 | CNC(=O)C1=C(O)c2ccccc2N(Cc2ccccc2C)C(=O)C1 [Example 81, 5-hydroxy-N-methyl-1-(2-methylbenzyl)-2-oxo-2,3-dihydro-1H-benzo[b]azepine-4-carboxamide] | 30 to 1000 | 30 to 1000 | 30 to 1000 | 30 to 1000
21 | CC(c1ccc(F)cc1)N1C(=O)CCC(=O)c2ccccc21 (stereo not drawn) [Example 82, 1-(1-(4-fluorophenyl)ethyl)-3,4-dihydro-1H-benzo[b]azepine-2,5-dione] | 30 to 1000 | 30 to 1000 | 30 to 1000 | 30 to 1000
22 | CNC(=O)C1=C(O)c2ccccc2N(Cc2ccc(Cl)cc2)C(=O)C1 [Example 83, 1-(4-chlorobenzyl)-5-hydroxy-N-methyl-2-oxo-2,3-dihydro-1H-benzo[b]azepine-4-carboxamide] | 10 to 30 | 10 to 30 | 10 to 30 | 10 to 30
